Here are results for five compounds from US20110136858A1, “Preferred Combination Therapy” (priority 2009, published 2011).

The test system of one series is TGF-beta1. Briefly: Functional assay for TGF-beta Production Stimulator activity: suppression of smooth muscle cell proliferation reversible by neutralising anti-TGF-beta1 antibody. The class given is cell-based, rat. The following applies: for EC50: rat aortic smooth muscle cells in culture, 72 hrs, suppression of proliferation reversible by neutralising antibodies to TGF-beta1, from dose-response curves of FIG. 2, read-out: ED50 for the TGF-beta Production Stimulator activity. The text has this: In order compare Droloxifene with other triphenylethylenes, we have exploited a functional assay for TGF-beta1 activity. Alternative approaches are less suitable for various reasons: it is not possible to directly measure TGF-beta protein production by cultured cells in response to triphenylethylenes because the TGF-beta that is produced remains associated with the cells or the extracellular matrix and is therefore not available for assay (for example, by ELISA) in the conditioned medium from the cultured cells. […] The specificity of such an assay is achieved by comparing the rate of proliferation of the smooth muscle cells in the presence or absence of a validated, highly specific neutralising antibody against TGF-beta (or TGF-beta1, as required).
The cells were prepared by enzyme dispersion of isolated rat aortae exactly as described previously (Grainger et al (1993) Biochem. J. 294(1):109-12 and the references therein). The cells were cultured (37° C.; 5% CO2) in DMEM+10% foetal calf serum (FCS), and subcultured every 4 days at 1:2 dilution, using 0.02% trypsin/EDTA (Gibco). Experiments were performed between the sixth and twentieth subculture.
For the experiments, the cells were subcultured into 12-well cluster plates, and allowed to grow for 24 hrs. […] The cells were then incubated for 72 hrs. All treatment conditions were established in triplicate. One triplicate of cells was counted (see below) at 0 h. All other wells were counted at 72 hrs.
The number of cells in each well was determined as follows: the well was washed three times with serum-free DMEM, aspirated and then incubated with 100 μl of trypsin/EDTA solution (Gibco) for 2 minutes at 37° C. Complete release of the cell monolayer was confirmed microscopically. The cell density in portion of this suspension was determined by counting using an Improved Neubauer hameocytometer, ensuring the suspension was uniform by gentle pipetting, prior to sampling. The cell density was converted to the absolute number of cells present in the well by multiplying the number of cells per μl by the total volume of suspension (100 μl). For each condition, the mean number of cells at the end of the experiment was calculated by meaning the number of cells in each well of triplicate.
The extent of proliferation of the cell culture under each condition was determined by subtracting the mean number of cells at time Oh from the mean number of cells under that condition at time 72 h. The amount of TGF-beta1 activity under each condition was determined by subtracting the inhibition of growth achieved in the presence of neutralising anti-TGF-beta1 antibody (AB-101-NA; R&D Systems) from the inhibition of growth achieved in the absence of antibody.

The nature of series [1]: Effect of co-administration of triphenylethylenes on clopidogrel metabolism in vivo (CLP*-acetamide by LC-MS). Also on record: species or system Sprague-Dawley rats. The following applies: rats, 0.1 to 10 mg/kg analog with 10 mg/kg clopidogrel. As to the method:
Adult male Sprague-Dawley rats are dosed with various triphenylethylenes at different doses from 0.1 mg/kg to 10 mg/kg (spanning the likely doses such compounds would be used in man), or with vehicle only, and simultaneously dosed with 10 mg/kg clopidogrel, both by oral gavage. Blood samples are drawn through an in-dwelling jugular catheter at 0.5, 1, 2, 4, 8 and 24 hrs post-dose, and serum is prepared by conventional methods well known in the art.
The level of CLP*, the active metabolite of clopidogrel is then determined in each blood sample by LC-MS by collecting the blood samples in tubes containing the thiol alkylating agent iodeoacetamide. Iodoacetamide reacts with CLP* to generate a stable product which can be detected by LC-MS using standard methodology well known in the art. An authentic sample of the acetamide adduct of CLP* is used to quantify the level of CLP*-acetamide in the sample. […] The concentration of CLP*-acetamide adduct can therefore be assumed to be proportional to the concentration of CLP*. The pharmacokinetics of CLP*-acetamide are then compared under the different conditions, using standard pharmacokinetics models implemented with WinNonLin.

The conditions of series [2]: chronic Tamoxifen users; translated from the relative risk; cited from earlier work.

Each structure is given as a SMILES string.

For `CC/C(=C(/c1ccc(OCCN(C)C)cc1)c1cccc(O)c1)c1ccccc1` [Droloxifene, (E)-1-(4′-(2-dimethylaminoethoxy)phenyl)-1-(3-hydroxyphenyl)-2-phenylbut-1-ene], the EC50 in the series on TGF-beta1 was 3 µM. Besides, the “effect on clopidogrel metabolism (in words)” value in series [1] is reported as “no effect”.

As for `CC/C(=C(\c1ccc(I)cc1)c1ccc(OCCN2CCCC2)cc1)c1ccccc1` [Idoxifene], in the series on TGF-beta1, the EC50 is 5 µM. Take `O=C(c1ccc(OCCN2CCCCC2)cc1)c1c(-c2ccc(O)cc2)sc2cc(O)ccc12` [Raloxifene]: in the series on TGF-beta1 (rat aortic smooth muscle cells), the “activity as Production Stimulator for TGF-beta1 (in words)” value is recorded as “does not have measurable activity”. Moreover, the EC50 in the series on TGF-beta1 is over 100 µM. As for `CC/C(=C(\c1ccccc1)c1ccc(OCCN(C)C)cc1)c1ccccc1` [Tamoxifen], the “reduction in risk of death from myocardial infarction” value in series [2] was 33%.

Consider `CN(C)CCOc1ccc(/C(=C(/CCCl)c2ccccc2)c2ccccc2)cc1` [Toremifene], for which the EC50 in the series on TGF-beta1 stood at 10 µM.
